The subject of this assay is common lambsquarters. As to the kind of experiment: Field trial Zellwood, Fla.: damage rating on common lambsquarters, sprayed until runoff. Format: in vivo. The conditions noted are these: commercial burn down standard; improved by Day 3. Here is the method: FIG. 7 is a bar graph setting forth results from a field study on lambsquarters conducted in Florida in January of 2005. Ratings are based on 0 to 10 (no damage to dead). Statistical analysis is by Duncan's MRT (P<0.05).
A field trial was conducted in Zellwood, Fla. The same formulation described in Example 1 was used in the Florida trial. All limonene treatments were made at a 3:1 ratio by volume, represented as water:herbicide formulation ratio, to provide a herbicide composition of 22% limonene (w/w %). Four reps per treatment were used; all treatments were randomly distributed within a rep. The weed species was common lambsquarters (1 to 2 feet in height). Treatments applied were pH 3, 7, 8 and 9 with and without a silicone surfactant, Silwet; each treatment was sprayed until runoff. The commercial burn down standard, Gramoxone (Paraquat) was included. Readings were taken at 1 and 2 hours, and 1, 3 and 7 days. […] Effects with Gramoxone (Paraquat) were first observed on day 1 and improved by Day 3. After the first 2 hours limonene effects were stabilized.

Turning to `C[n+]1ccc(-c2cc[n+](C)cc2)cc1` [Gramoxone, Paraquat], the effects first observed was 1 days.

For the origin of these results see patent publication US8153561B2, “Limonene-containing herbicide compositions, herbicide concentrate formulations and methods for making and using same for organic production” (Cutting Edge Formulations, Inc., priority 2005, dated 2012).
